Test results: patent publication US20060258598A1, “Alpha-keto carbonyl calpain inhibitors” (priority 2003, published 2006)

How the values were obtained:
[1] = tested on: cellular calpains in C2C12 myoblasts; test: Calpain inhibition assay in C2C12 myoblasts; type: cell-based; conditions: 2 h incubation, calcium ionophore Br-A-23187, read-out: Calp I IC50 Myoblast
Outline: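 Confluent C2C12 myoblasts in fusion medium (DMEM, 5% horse serum) exposed to compound for 2 h at 37 °C, then loaded with 400 μM Suc-Leu-Tyr-AMC for 20 min at room temperature in buffer with 4 mM CaCl2, HEPES pH 7.25. Calpains activated by Br-A-23187 ionophore (20 μM in added buffer); AMC fluorescence read each minute for 60 min at 37 °C to derive IC50.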

[2] = tested on: Primary fibroblasts from donors with Friedreich Ataxia (FRDA); test: BSO assay (cell viability under BSO-induced oxidative stress); type: cell-based, human; conditions: 24 h preincubation, 1 mM BSO
Outline: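 FRDA patient primary fibroblasts were pretreated with compounds for 24 h, then exposed to 1 mM BSO (final) until toxicity appeared in BSO-only controls (typically 16–48 h). Viability was read by calcein AM (1.2 μM)/ethidium homodimer (4 μM) staining, 60 min RT, fluorescence 485/525 nm.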

[3] = biological target: T1, 20S Proteasome (Oryctolagus cuniculus, UniProt G1T4Q9); test: 20S Proteasome assay; type: biochemical, Rabbit; conditions: substrate Suc-Leu-Leu-Val-Tyr-AMC; read-out: 20S Prot IC50
T1 sequence (G1T4Q9 1-263): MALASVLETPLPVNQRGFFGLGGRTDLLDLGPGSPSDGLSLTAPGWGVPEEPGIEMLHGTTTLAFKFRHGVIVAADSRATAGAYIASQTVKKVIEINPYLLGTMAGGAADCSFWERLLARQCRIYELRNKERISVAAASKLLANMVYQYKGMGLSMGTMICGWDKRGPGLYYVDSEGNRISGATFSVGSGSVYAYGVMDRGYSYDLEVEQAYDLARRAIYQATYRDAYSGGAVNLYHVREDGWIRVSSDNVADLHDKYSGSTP
Method: 25 μl of a reaction buffer containing 400 μM of the fluorogenic substrate Suc-Leu-Leu-Val-Tyr-AMC (Bachem) are dispensed per well of a white microtiter plate. Test compounds dissolved in 0.5 μl DMSO are added. To start the reaction; 25 μl of reaction buffer containing 35 ng of enzyme (20S Proteasome, Rabbit, Calbiochem) are added. The increase in fluorescence (excitation at 360 nm; emission at 440 nm) is measured over 30 min at 30° C. at 30″. The IC50's are then determined from the slopes.

[4] = biological target: T2, human μ-calpain (Homo sapiens, UniProt P07384); test: Enzymatic calpain inhibition assay; type: biochemical; conditions: substrate Suc-Leu-Tyr-AMC, read-out: Calp I IC50
T2 construct: purchased Calbiochem
T2 sequence (P07384 1-714): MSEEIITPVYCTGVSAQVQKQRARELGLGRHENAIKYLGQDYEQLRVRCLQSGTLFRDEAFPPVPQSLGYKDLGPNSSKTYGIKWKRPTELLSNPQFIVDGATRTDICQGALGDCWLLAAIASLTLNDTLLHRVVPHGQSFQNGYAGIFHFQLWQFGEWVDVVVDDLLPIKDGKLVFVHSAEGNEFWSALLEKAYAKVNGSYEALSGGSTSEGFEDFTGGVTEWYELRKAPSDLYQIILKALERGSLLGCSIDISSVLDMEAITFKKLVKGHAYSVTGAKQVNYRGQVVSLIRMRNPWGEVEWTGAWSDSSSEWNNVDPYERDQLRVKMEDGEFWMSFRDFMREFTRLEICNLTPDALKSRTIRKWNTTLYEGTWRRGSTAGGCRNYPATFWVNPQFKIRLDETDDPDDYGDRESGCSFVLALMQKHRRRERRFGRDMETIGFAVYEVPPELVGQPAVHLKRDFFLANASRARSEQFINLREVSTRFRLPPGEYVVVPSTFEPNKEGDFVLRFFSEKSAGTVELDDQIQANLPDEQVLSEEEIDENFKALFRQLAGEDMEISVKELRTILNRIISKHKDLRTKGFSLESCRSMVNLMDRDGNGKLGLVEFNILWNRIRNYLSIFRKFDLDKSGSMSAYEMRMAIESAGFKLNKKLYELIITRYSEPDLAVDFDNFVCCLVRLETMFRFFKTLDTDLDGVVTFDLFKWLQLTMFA
T2 sequence (P04632 1-268 partner): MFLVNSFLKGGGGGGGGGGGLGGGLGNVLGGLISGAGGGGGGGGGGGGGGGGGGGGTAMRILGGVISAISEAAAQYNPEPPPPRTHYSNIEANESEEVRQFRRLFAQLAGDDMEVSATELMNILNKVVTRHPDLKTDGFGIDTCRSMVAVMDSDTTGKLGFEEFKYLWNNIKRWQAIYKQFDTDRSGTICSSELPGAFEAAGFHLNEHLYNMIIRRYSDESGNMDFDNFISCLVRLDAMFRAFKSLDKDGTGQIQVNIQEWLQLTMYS
Outline: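 Human μ-calpain (0.5 μg) with 250 μM Suc-Leu-Tyr-AMC in 100 mM imidazole pH 7.5, 5 mM cysteine, 5 mM CaCl2. AMC fluorescence (ex 360/em 440 nm) followed 30 min at 30 °C; IC50 determined graphically from initial velocities versus inhibitor concentration.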

[5] = tested on: experimental muscular dystrophy in hamster; conditions: cited from earlier work
[6] = tested on: mdx mouse; test: Longterm treatment of mdx mice (model for Duchenne Muscular Dystrophy); type: in vivo; conditions: 3 week old mice, treatment period of 4 weeks
Method: The mdx mouse is a well established animal model for Duchenne Muscular Dystrophy (Bulfield G., Siller W. G., Wight P. A., Moore K. J., X chromosome-linked muscular dystrophy (mdx) in the mouse, Proc. Natl. Acad. Sci. USA., 1984, 81(4), 1189-1192). Selected compounds were tested in longterm treatments of mdx mice, according to the procedures described below.
Mouse strains: C57BL/10scsn and C57BL/10scsn mdx mouse strains were purchased at The Jackson Laboratory (ME, USA) and bred inhouse. Mouse males were sacrificed at the age of 3 or 7 weeks by CO2 asphyxiation.
Treatment: Compounds were dissolved in 50% PEG, 50% saline solution and applied by i.p. injection.
Histology: Tibialis anterior (TA) and diaphragm (Dia) muscles were collected and mounted on cork supports using gum tragacanth (Sigma-Aldrich, Germany). The samples were snap-frozen in melting isopentane and stored at −80° C. 12 μm thick cryosections of the mid-belly region of muscles were prepared. For staining, sections were air dried and fixed with 4% PFA in PBS for 5 minutes, washed 3 times with PBS and incubated over night at 4° C. in PBS containing 2 μg/ml Alexa Fluor™ 488 conjugated wheat-germ agglutinin (WGA-Alexa, Molecular Probes, Eugen, Oreg., USA) to stain membrane-bound and extracellular epitopes and 1 μg/ml 4′,6-diamidino-2-phenylindole (DAPI; Molecular Probes) to stain nuclei.
Image acquisition and analysis: Fluorescence microscopy images of both labels were acquired using a digital camera (ColorView II, Soft Imaging System, Munster, Germany) coupled to a fluorescence microscope (Vanox S, Olympus, Tokyo, Japan). Combination of these two stainings to a composite image, assembling of several images to a complete image of the entire muscle cross-section and further semi-automated analysis was performed using the image analysis program AnalySIS (Soft Imaging System). Image analysis of 1200-2900 muscle fibers in each section was performed in three steps: 1) determination of the muscle fiber boundaries, 2) determination of the muscle fiber size, and 3) determination of the percentage of muscle fibers containing centralized nuclei. Six different geometrical parameters were tested for the determination of the muscle fiber size: (a) the “minimal feret” (the minimum distance of parallel tangents at opposing borders of the muscle fiber), (b) the “area”, (c) the “minimal inner diameter” (the minimum diameter through the center of the muscle fiber), (d) the “minimal diameter” (the minimum diameter of a muscle fiber for angles in the range 0° through 179° with step width 1°, (e) the “minimal outer diameter” (the minimum diameter through the muscle fiber from outer border to outer border), and (f) the “perimeter”. The variance coefficient of the muscle fiber size is defined as follows: variance coefficient=(standard deviation of the muscle fiber size/mean of the muscle fiber size of the section)*1000. For statistical analysis of different variance coefficient values Mann-Whitney U test was used.
Selected Examples of the present invention were active in the mdx mouse model at 10 mg/kg/day, using 3 week old mice and a treatment period of 4 weeks (N=5−10).

Row | Molecule | IC50 [1] [µM] | BSO EC50 [2] | IC50 [3] [µM] | IC50 [4] [µM] | life-prolonging effect [5] | activity in the mdx mouse model [6]
1 | CCNC(=O)C(=O)[C@H](Cc1ccc(Br)cc1)NC(=O)[C@H](CC(C)C)NC(=O)CCCCC1SC[C@@H]2NC(=O)N[C@H]12 (some centres unmarked) [Example 164] | 2 | inactive | > 1 | 0.02 |  | 
2 | CCOC(=O)[C@H]1O[C@@H]1C(=O)N[C@@H](CC(C)C)C(=O)NCCC(C)C [Example E-64-d] |  |  |  |  | life-prolonging effect | 
3 | Z-Val-Phe-H [MDL-28170, reference compound] | 40 |  | > 1 |  |  | did not show statistically significant activity
